Measured values published in ChEMBL document CHEMBL1201862, “PubChem BioAssay data set” (2004).
Calls of active or inactive are those of the source.

Experiments:
[1] = molecular target: T1, Bcl-2-like protein 10 (Homo sapiens, UniProt Q9HD36); assay: Bcl-B/TR3 peptide binding disruption – biochemical, fluorescence polarization, FITC-TR3 peptide, selectivity assay for Bfl-1 inhibitor project, primary screen (AID 748);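 further: fluorescence polarization from a fluorescein-labelled TR3 peptide binding purified Bcl-B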
T1 sequence (Q9HD36 whole entry): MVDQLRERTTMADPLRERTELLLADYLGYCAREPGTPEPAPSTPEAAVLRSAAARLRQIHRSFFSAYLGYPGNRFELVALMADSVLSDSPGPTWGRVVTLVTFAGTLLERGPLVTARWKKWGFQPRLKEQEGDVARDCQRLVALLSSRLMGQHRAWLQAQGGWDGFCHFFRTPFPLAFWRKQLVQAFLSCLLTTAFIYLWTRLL

[2] = IC50 of Artemis nuclease activity blockers – biochemical, fluorescence intensity, dose response (AID 720701); type: functional;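 further: Artemis endonuclease enzyme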
[3] = viability of HCT116 lacking mutant beta-catenin – cell-based, human colon tumor, dose response (AID 1045); type: functional;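 further: HCT116 colon tumor cells with beta catenin knocked out; cells exposed to compound for 60 hours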
[4] = system: INS1; assay: INS-1E survival protection against cytokine death – cell-based, luminescence, retest, dose response (AID 449756); type: functional; settings: Rattus norvegicus;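 further: cell death triggered by IL-1 beta plus TNF-alpha plus IFN-gamma mixture; protective hits raise ATP signal compared with cytokine alone wells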
[5] = viability of PTEN-deleted HCT116 cells – cell-based, HCT116 PTEN knockout, dose response (AID 1047); type: functional;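 further: HCT116 colon tumor cells with PTEN knocked out; cells exposed to compound for 60 hours before readout; potency for loss of cell viability measured by luminescence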
[6] = Luminescence Cell-Based Dose Retest to Confirm Inhibitors of Cancer Stem Cells. [Related pubchem assays (depositor defined):AID2717, AID2721]; type: functional; settings: Homo sapiens
[7] = system: H4; assay: Luminescence Cell-Based Dose Response HTS to Identify Activators of 5'UTR Stem-Loop Driven Prion Protein mRNA Translation in H4 Neuroglioblastoma Cells. [Related pubchem assays: 1829 (Project Summary), 1814 (Primary HTS)]; type: functional; settings: Homo sapiens
[8] = Luminescence Cell-Based Dose Confirmation HTS to Identify Activators of 5'UTR Stem-Loop Driven Alpha-Synuclein mRNA Translation in H4 Neuroglioblastoma Cells. [Related pubchem assays: 1829 (Project Summary), 1814 (Primary HTS)]; type: functional
[9] = Luminescence Cell-Based Dose Response HTS to Identify Activators of Luciferase Translation or Activity in H4 […] Cells. [Related pubchem assays: 1829 (Project Summary), 1814 (Primary HTS)]; type: functional
[10] = molecular target: DNA damage-inducible transcript 3 protein (Mus musculus, UniProt P35639); type: functional, Cricetulus griseus
Chain of DNA damage-inducible transcript 3 protein (P35639 whole entry): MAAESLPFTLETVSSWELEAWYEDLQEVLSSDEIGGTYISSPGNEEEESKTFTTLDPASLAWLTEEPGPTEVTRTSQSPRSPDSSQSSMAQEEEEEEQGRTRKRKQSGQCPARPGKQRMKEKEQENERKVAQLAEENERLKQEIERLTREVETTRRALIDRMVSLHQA

[11] = molecular target: T2, Coagulation factor XII (Homo sapiens, UniProt P00748); type: functional;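 further: activated factor XIIa alpha cleaving a fluorogenic AMC peptide substrate; inhibitor potency from loss of enzyme activity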
T2 sequence (P00748 whole entry): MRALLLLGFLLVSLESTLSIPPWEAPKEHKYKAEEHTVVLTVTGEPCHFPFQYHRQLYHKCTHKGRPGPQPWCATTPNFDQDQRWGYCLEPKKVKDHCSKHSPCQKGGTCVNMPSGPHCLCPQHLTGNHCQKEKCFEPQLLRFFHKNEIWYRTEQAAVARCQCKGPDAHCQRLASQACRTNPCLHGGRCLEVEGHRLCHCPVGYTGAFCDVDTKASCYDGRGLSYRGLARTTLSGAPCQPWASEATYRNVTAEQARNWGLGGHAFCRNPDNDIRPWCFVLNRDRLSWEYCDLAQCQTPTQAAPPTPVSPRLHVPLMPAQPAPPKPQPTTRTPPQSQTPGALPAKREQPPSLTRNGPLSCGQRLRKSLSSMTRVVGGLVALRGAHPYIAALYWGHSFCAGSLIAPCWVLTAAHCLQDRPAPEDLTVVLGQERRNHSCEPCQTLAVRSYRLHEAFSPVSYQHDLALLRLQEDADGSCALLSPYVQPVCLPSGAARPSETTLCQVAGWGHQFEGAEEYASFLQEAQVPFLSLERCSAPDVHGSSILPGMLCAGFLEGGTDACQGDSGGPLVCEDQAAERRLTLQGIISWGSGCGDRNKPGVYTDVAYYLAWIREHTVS

[12] = molecular target: Nonstructural protein 1 (Influenza A virus, UniProt Q194T2); type: functional, Influenza A virus (A/California/07/2009(H1N1))
Chain of Nonstructural protein 1 (Q194T2 whole entry): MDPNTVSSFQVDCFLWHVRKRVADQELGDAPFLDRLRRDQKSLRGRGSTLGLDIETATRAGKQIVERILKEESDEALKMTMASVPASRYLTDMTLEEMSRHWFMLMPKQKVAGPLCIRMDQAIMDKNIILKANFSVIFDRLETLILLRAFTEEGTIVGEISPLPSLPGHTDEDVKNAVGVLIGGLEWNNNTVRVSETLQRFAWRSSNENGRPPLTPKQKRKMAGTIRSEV

[13] = viability loss in THP-1 monocytes – THP-1 cells, cytotoxicity control for Vif-APOBEC3G degradation inhibitor project, dose response (AID 1117359); type: functional; settings: THP-1
[14] = fluconazole-exposed Candida albicans growth modulators – fluorescence, retest, confirmation (AID 2467); type: functional, cell-based
[15] = NIH-3T3 fibroblast cytotoxicity, dose response, cytotoxicity control, cell-based, fluorescence, Alamar Blue, secondary assay (AID 2327); type: functional;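 further: NIH-3T3 mouse fibroblasts cultured with fluconazole at 8 µg/mL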
[16] = molecular target: T3, Estrogen receptor (Homo sapiens, UniProt P03372);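 further: potency for inhibiting coactivator peptide recruitment to the receptor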
T3 sequence (P03372 whole entry): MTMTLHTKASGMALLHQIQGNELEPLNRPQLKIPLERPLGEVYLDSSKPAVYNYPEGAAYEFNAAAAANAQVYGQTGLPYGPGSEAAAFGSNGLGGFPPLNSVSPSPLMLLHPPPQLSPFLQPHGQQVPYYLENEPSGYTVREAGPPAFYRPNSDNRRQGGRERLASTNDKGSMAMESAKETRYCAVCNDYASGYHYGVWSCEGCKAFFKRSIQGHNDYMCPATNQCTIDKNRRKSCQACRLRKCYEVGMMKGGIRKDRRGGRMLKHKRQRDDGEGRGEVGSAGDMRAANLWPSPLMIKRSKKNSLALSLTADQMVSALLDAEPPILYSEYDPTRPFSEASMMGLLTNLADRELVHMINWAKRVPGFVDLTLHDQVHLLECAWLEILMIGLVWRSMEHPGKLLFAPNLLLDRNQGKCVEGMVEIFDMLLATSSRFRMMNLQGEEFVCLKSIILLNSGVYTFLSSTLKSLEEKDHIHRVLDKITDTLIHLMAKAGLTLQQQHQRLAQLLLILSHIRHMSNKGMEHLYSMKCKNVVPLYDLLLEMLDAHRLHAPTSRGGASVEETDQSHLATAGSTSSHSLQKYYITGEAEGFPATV

[17] = molecular target: Cytochrome P450 2C9 (Homo sapiens, UniProt P11712); settings: Potency
Chain of Cytochrome P450 2C9 (P11712 whole entry): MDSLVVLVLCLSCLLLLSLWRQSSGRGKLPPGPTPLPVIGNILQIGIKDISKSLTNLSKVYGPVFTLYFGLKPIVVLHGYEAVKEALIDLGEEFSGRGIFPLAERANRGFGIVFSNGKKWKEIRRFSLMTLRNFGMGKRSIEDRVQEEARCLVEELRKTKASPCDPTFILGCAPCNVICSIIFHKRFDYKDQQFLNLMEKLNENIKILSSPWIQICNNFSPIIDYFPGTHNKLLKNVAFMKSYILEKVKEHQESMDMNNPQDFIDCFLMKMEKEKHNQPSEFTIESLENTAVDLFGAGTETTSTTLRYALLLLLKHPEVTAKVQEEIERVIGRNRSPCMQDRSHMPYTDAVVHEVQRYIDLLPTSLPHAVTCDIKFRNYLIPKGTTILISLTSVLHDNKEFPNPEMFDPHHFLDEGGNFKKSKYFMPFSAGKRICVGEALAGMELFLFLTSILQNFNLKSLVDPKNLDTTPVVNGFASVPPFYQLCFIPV

[18] = molecular target: Scavenger receptor class B member 1 (Mus musculus, UniProt Q61009); assay: mouse SR-BI DiI-HDL uptake blockers – ldlA[mSR-BI] cells, fluorescence, cherry pick, dose response (AID 493194); type: functional, cell-based;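 further: cellular uptake of fluorescent DiI-labeled HDL measured as cell fluorescence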
Chain of Scavenger receptor class B member 1 (Q61009 whole entry): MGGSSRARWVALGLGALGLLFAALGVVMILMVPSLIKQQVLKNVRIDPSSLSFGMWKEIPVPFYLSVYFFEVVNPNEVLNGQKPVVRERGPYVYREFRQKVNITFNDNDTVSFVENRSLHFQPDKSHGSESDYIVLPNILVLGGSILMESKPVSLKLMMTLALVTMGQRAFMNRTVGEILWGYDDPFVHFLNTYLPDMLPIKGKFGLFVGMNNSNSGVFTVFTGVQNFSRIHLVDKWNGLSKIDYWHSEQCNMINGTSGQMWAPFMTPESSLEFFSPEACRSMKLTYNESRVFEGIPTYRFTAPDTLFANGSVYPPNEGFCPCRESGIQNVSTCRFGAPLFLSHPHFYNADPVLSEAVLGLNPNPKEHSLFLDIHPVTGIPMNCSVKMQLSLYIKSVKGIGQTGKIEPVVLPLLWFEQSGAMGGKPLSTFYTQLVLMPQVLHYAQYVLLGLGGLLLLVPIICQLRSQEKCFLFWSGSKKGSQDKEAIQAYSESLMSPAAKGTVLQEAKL

[19] = decrease of insulin promoter-GFP reporter – imaging, high-content screening, mouse beta cells (AID 1628); type: functional; settings: MIN6
[20] = molecular target: Paired box protein Pax-8 (Homo sapiens, UniProt Q06710); assay: PAX8 transcriptional activity inhibition in RMG-I – RMG-I cells, luciferase, cherry-pick, dose response (AID 687027); type: functional, cell-based;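 further: luciferase reporter driven by Pax8 target thyroperoxidase promoter measured by SteadyGlo luminescence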
Chain of Paired box protein Pax-8 (Q06710 whole entry): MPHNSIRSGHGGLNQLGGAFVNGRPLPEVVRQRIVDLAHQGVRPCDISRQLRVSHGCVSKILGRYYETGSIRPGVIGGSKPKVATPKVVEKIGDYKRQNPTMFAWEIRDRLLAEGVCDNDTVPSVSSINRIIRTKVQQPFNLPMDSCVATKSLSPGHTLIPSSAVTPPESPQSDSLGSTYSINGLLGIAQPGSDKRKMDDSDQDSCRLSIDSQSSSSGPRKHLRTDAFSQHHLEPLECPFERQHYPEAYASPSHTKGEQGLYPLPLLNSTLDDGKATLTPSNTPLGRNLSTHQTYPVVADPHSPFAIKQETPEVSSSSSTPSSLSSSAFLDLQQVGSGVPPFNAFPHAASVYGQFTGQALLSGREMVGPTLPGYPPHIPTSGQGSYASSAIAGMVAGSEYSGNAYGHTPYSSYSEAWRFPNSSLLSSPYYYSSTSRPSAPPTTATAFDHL

[21] = MIN6 cell viability loss – mouse insulinoma, cytotoxicity control, dose response (AID 2122); type: functional;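 further: confirmatory high-throughput counterscreen run to flag cytotoxic compounds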
[22] = reduction of Shn3 3'UTR-driven luciferase in osteoblasts – cell-based, Clone20 osteoblasts, firefly luciferase, cherry-picked, dose response (AID 624132); type: functional;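 further: firefly luciferase luminescence from reporter carrying the Shn3 3'UTR in osteoblasts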
[23] = loss of viability in HepG2 cells – cell-based, CellTiter-Glo, cherry-picked, cytotoxicity control for Shn3 inhibitor project, dose response (AID 624134); type: functional

In the case of `O=C(Cc1ccccc1)Nc1ccc(N2CCCC2)cc1`, the IC50 [1] is reported as 31.2 µM (active) and the IC50 [2] is reported as 6.03 µM (active).

With `C=C(C(=O)c1ccccc1)C(C)C(=C)C(=O)c1ccccc1` the EC50 [3] was 1.14 µM (active), the AC50 [4] was 7.97 µM (active) and the EC50 [5] was 1.65 µM (active). The AC50 [6] was 2.33 µM (active), the EC50 [7] was > 120 µM (not active) and the EC50 [8] was 7.98 µM (active). The EC50 [9] was > 120 µM (not active) and the “Absolute IC50 (CHOP)” value [10] was 10 µM.

For `COc1ccc(C2C(C(C)=O)=C(O)C(=O)N2c2nccs2)cc1OC` (stereo unspecified), the IC50 [11] was > 50 µM (inactive).

For `Cc1ccc2nc(O)c(C3C(C#N)=C(N)Oc4c3ccc3cccnc43)cc2c1` (stereo unspecified), the AC50 [4] was 1.27 µM (active), the IC50 [1] was 66.8 µM (inactive) and the IC50 [12] was 46.8 µM (active). For the same compound, the CC50 [13] was 2.48 µM (active), the EC50 [14] was 2.17 µM (active) and the EC50 [15] was > 160 µM (inconclusive). For the same compound, the IC50 [16] was 19.5 µM (active).

For `COc1ccc(-c2coc3ccc(O[C@@H]4O[C@@H](COC(C)=O)[C@@H](OC(C)=O)[C@@H](OC(C)=O)[C@H]4OC(C)=O)cc3c2=O)cc1`, the AC50 [17] was 20 µM (inconclusive).

With `O=C(Nc1ccc(Cl)cc1)Nc1ccc(N2CCCC2)c(S(=O)(=O)Nc2ccccc2Cl)c1` the AC50 [4] was 6.99 µM (active), the AC50 [18] was 23.5 µM (active) and the IC50 [19] was 4.47 µM (active). For the same compound, the AC50 [20] was 5.13 µM (active), the IC50 [21] was > 16 µM (inactive) and the AC50 [22] was 5.2 µM (active). The AC50 [23] was 7.06 µM (active).
